In brackets after ≈: the same amount, converted by molar mass. Activity calls are given as the source filed them. No cut-off for these calls is given here.
What was measured:
Bile acid receptor [1] = target: T1, Bile acid receptor (Homo sapiens, UniProt Q96RI1)
T1 sequence (Q96RI1 whole entry): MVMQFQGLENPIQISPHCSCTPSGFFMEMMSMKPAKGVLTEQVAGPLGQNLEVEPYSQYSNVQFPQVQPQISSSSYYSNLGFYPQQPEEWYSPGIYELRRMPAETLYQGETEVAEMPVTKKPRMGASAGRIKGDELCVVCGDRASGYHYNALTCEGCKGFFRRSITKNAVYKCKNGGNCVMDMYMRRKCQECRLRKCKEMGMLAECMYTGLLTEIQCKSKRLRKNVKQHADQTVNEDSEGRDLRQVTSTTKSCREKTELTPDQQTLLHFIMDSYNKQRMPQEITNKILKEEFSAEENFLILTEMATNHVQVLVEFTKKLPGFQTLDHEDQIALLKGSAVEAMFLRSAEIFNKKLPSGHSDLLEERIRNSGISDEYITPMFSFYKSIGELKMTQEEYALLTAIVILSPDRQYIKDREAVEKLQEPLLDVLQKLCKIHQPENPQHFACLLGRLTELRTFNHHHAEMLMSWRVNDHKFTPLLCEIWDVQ
Description: (§1) Agonist activity at recombinant human full-length FXR expressed in HeLa cells co-expressing human RXRalpha after 24 hrs by Dual-Glo luciferase assay

[2] = Metabolic stability in Sprague-Dawley rat liver microsomes assessed as intrinsic clearance at 10 uM preincubated with NADPH regenerating system for 5 mins followed by addition of microsome upto 60 mins by HPLC analysis; format: ADME; conditions: read-out: CLH
[3] = target: T2, Bifunctional epoxide hydrolase 2 (Homo sapiens, UniProt P34913); assay: Inhibition of recombinant human sEH using PHOME as substrate preincubated for 30 mins followed by substrate addition and measured after 30 mins by fluoresence-based assay
T2 sequence (P34913 whole entry): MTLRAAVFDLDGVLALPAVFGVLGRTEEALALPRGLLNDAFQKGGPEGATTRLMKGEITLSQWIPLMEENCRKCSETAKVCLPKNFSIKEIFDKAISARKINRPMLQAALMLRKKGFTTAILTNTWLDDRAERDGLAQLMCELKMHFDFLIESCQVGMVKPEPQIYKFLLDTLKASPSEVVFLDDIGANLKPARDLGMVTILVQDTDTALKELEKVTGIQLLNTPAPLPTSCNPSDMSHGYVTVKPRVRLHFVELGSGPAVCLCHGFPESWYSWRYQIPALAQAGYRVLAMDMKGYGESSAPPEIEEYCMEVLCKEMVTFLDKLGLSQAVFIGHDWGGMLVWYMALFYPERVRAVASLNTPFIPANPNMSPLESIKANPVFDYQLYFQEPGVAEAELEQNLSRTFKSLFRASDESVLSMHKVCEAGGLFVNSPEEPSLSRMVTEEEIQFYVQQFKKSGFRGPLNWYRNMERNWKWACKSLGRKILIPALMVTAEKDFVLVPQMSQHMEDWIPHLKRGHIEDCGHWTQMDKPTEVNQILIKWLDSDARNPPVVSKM

[4] = Metabolic stability in Sprague-Dawley rat liver microsomes assessed as half life at 10 uM preincubated with NADPH regenerating system for 5 mins followed by addition of microsome upto 60 mins by HPLC analysis; format: ADME
[5] = target: T3, Bile acid receptor (Homo sapiens) (UniProt Q96RI1); assay: Agonist activity at recombinant human full-length FXR expressed in HeLa cells co-expressing human RXRalpha at 30 uM after 24 hrs by Dual-Glo luciferase assay; format: cell-based
T3 sequence (whole entry): T1 sequence (Q96RI1 whole entry)

[6] = Aqueous solubility of compound; format: physicochemical; conditions: buffer
[7] = Cmax in CD-1 mouse plasma at 10 mg/kg, po administered as single dose by LC-MS analysis; format: ADME, organism-based; parameters: route oral, dose 10 mg/kg
[8] = Half life in CD-1 mouse plasma at 10 mg/kg, po administered as single dose by LC-MS analysis; format: ADME, organism-based
[9] = Tmax in CD-1 mouse plasma at 10 mg/kg, po administered as single dose by LC-MS analysis; format: ADME, organism-based
HepG2 [10] = assay: Cytotoxicity against human HepG2 cells assessed as cell viability at 100 uM by WST-1 assay; format: cell-based; conditions: hepg2, 100 µM
HepG2 [11] = assay: Effect on FXR regulated gene expression in human HepG2 cells assessed as induction of SREBP1c expression at 1 uM after 8 hrs by qRT-PCR analysis
HepG2 [12] = assay: Effect on FXR regulated gene expression in human HepG2 cells assessed as induction of PPARalpha expression at 1 uM after 8 hrs by qRT-PCR analysis
Bile acid receptor [13] = target: T1, Bile acid receptor; conditions: hela
Description: as §1

Compound	EC50 (Bile acid receptor [1]) [nM]	microsomal CLint at 10 µM [2] [µL/min/mg]	IC50 [3] [nM]	half-life at 10 µM [4] [h]	further results
CC(C)(C)c1ccc(C(=O)NCc2c(Cl)cc(NS(C)(=O)=O)cc2Cl)cc1	–	16	268	1.37	Activity [5]: inactive
CS(=O)(=O)Nc1ccc(CNC(=O)c2ccc(N3CCOCC3)cc2)c(Cl)c1	4400	4.1	175	5.72	–
CC(C)(C)c1ccc(C(=O)NCc2ccc(NS(C)(=O)=O)cc2Cl)cc1	–	21	–	1.08	–
CS(=O)(=O)Nc1ccc(CNC(=O)c2ccc(C34CC(C3)C4)cc2)c(Cl)c1	560	17	49	1.35	–
COc1ccc(C(=O)NCc2ccc(NS(C)(=O)=O)cc2Cl)cc1	–	5	38	4.5	Activity [5]: inactive
CC(C)S(=O)(=O)Nc1ccc(CNC(=O)c2ccc(C(C)(C)C)cc2)c(Cl)c1	–	23	11.2	0.983	–
CC(C)(O)c1ccc(C(=O)NCc2ccc(NS(C)(=O)=O)cc2Cl)cc1	32	1.5	170	20.2	solubility [6]: 48 µg/mL (≈ 121 µM); Activity (HepG2 [11]): inactive; Activity (HepG2 [10]): Non-Toxic; Activity (HepG2 [12]): inactive
CC(C)(C)c1ccc(C(=O)NCc2ccc(N)cc2Cl)cc1	40	–	–	–	–
CS(=O)(=O)Nc1ccc(CNC(=O)c2ccc(C3(C(F)(F)F)CC3)cc2)c(Cl)c1	–	7.5	4.3	3.03	solubility [6]: 2.9 µg/mL (≈ 6.49 µM); Activity (HepG2 [10]): Non-Toxic
CS(=O)(=O)Nc1ccc(CNC(=O)c2ccc(C3(O)CC3)cc2)c(Cl)c1	–	–	–	–	EC50 (Bile acid receptor [13]): Nd(Unstable)
CC(C)(C)c1ccc(C(=O)NCc2ccc(NS(=O)(=O)C(F)(F)F)cc2Cl)cc1	–	17	21	1.3	Activity [5]: inactive
CS(=O)(=O)Nc1ccc(CNC(=O)c2ccc(C3(O)COC3)cc2)c(Cl)c1	–	5.4	111	4.23	Activity [5]: inactive
CS(=O)(=O)Nc1ccc(CNC(=O)c2ccc(N3CCCCC3)cc2)c(Cl)c1	410	20	71	1.12	–
COC(C)(C)c1ccc(C(=O)NCc2ccc(NS(C)(=O)=O)cc2Cl)cc1	–	24	9	0.917	Activity [5]: inactive

Second part, led by results:

EC50 (Bile acid receptor [1]) [nM]	microsomal CLint at 10 µM [2] [µL/min/mg]	IC50 [3] [nM]	half-life at 10 µM [4] [h]	Compound	further results
3220	14	4	1.6	CS(=O)(=O)Nc1ccc(CNC(=O)c2ccc(C(F)(F)C(F)(F)F)cc2)c(Cl)c1	–
4000	22	13	1.03	CS(=O)(=O)Nc1ccc(CNC(=O)c2ccc(CC(F)(F)F)cc2)c(Cl)c1	–
–	9.6	7	2.43	CS(=O)(=O)Nc1ccc(CNC(=O)c2ccc(C(F)(F)F)cc2)c(Cl)c1	solubility [6]: 5.7 µg/mL (≈ 14 µM); Cmax [7]: 4930 ng/mL; half-life [8]: 5.2 h; Tmax [9]: 1 h; Activity (HepG2 [10]): Non-Toxic
–	17	–	1.28	CS(=O)(=O)Nc1ccc(CNC(=O)c2ccc(N3CCCC3)cc2)c(Cl)c1	–
13000	8.6	94	2.62	CS(=O)(=O)Nc1ccc(CNC(=O)c2ccc(N3CCC3)cc2)c(Cl)c1	–
–	9.8	10	2.3	CS(=O)(=O)Nc1ccc(CNC(=O)c2ccc(S(F)(F)(F)(F)F)cc2)c(Cl)c1	Activity [5]: inactive
500	28	6.1	0.783	CCS(=O)(=O)Nc1ccc(CNC(=O)c2ccc(C(C)(C)C)cc2)c(Cl)c1	–
400	12	12	1.85	CC(C)Oc1ccc(C(=O)NCc2ccc(NS(C)(=O)=O)cc2Cl)cc1	–
–	47	16	0.483	CC(C)(C)c1ccc(C(=O)NCc2ccc(NS(C)(=O)=O)cc2F)cc1	Activity [5]: inactive
–	25	–	0.883	CN(C)c1ccc(C(=O)NCc2ccc(NS(C)(=O)=O)cc2Cl)cc1	–
1500	41	7.8	0.55	CC(C)(C)c1ccc(C(=O)NCc2ccc(NS(=O)(=O)C3CC3)cc2Cl)cc1	–
1090	9.1	22	2.47	CS(=O)(=O)Nc1ccc(CNC(=O)c2ccc(OC(F)(F)F)cc2)c(Cl)c1	–
–	9.3	85	2.42	CC(C)(C)c1ccc(C(=O)NCc2c(F)cc(NS(C)(=O)=O)cc2F)cc1	Activity [5]: inactive
2200	12	31	1.8	CCOc1ccc(C(=O)NCc2ccc(NS(C)(=O)=O)cc2Cl)cc1	–
1200	9.6	2	2.35	CC(F)(F)c1ccc(C(=O)NCc2ccc(NS(C)(=O)=O)cc2Cl)cc1	–

— ChEMBL document CHEMBL5034009, “Second-Generation Dual FXR/sEH Modulators with Optimized Pharmacokinetics” (J Med Chem, 2021)
